Legend:
Format in all cases: cell-based, human
[1] = tested on: cGATA6-EGFP-transduced hESC-CM cultures; assay: cGATA6-EGFP reporter: fraction of EGFP+ putative nodal cells; settings: cGATA6-EGFP transduced hESC-CMs, ~50% transduction efficiency; control 15%
Protocol: Prior to lentiviral transduction, hESC-CMs were replated onto glass coverslips as described for electrophysiological studies and allowed to recover for 4-5 days. Cells were then exposed to cGATA6-EGFP lentivirus (at 5000 LPs/cell, added to their usual RPMI-B27 medium) for 12 hours. […] Transduced cell preparations were then used in either electrophysiological or immunocytochemical studies at 3-4 days post-transduction.
Dissociated hESC-CMs were cultured on glass cover slips, fixed, and immunostained as previously described (Laflamme et al., “Cardiomyocytes Derived from Human Embryonic Stem Cells in Pro-Survival Factors Enhance Function of Infarcted Rat Hearts,” Nat. Biotechnol. 25(9):1015-1024 (2007), McDevitt et al., “Proliferation of Cardiomyocytes Derived from Human Embryonic Stem Cells is Mediated Via the IGF/PI 3-Kinase/Akt Signaling Pathway,” J Mol Cell Cardiol. 39(6):865-873 (2005), Laflamme et al., “Formation of Human Myocardium in the Rat Heart from Human Embryonic Stem Cells,” Am J. Pathol. 167(3):663-671 (2005), and Minami et al., “Extracardiac Progenitor Cells Repopulate Most Major Cell Types in the Transplanted Human Heart,” Circulation 112(19):2951-2958 (2005), which are hereby incorporated by reference in their entirety). […] Each experimental condition was assayed in triplicate, and a minimum of 500 nuclei were counted per sample. […]

hESC-CM cultures [2] = assay: action potential (AP) phenotyping of hESC-CMs under current clamp after manipulation of NRG-1β/ErbB signaling
Protocol: At 14 days following induction with activin A, hESC-CMs were dispersed using 0.1 U/ml of dispase (Invitrogen) with 63 U/ml DNase I (Invitrogen) and replated at low density onto 0.5% gelatin-coated glass coverslips. After a few days of additional culture, the spontaneously generated action potentials (APs) of the hESC-CMs were recorded using a HEKA EPC-10 amplifier (HEKA, Lambrecht, Germany), operated in current-clamp mode. Note that the EPC-10 has a true “voltage follower” circuit, similar to a classical microelectrode amplifier (Magistretti et al., “Modalities of Distortion of Physiological Voltage Signals by Patch-Clamp Amplifiers: a Modeling Study,” Biophys J. 74(2 Pt 1):831-842 (1998) and Magistretti et al., “Action Potentials Recorded with Patch-Clamp Amplifiers: Are They Genuine?” Trends Neurosci. 19(12):530-534 (1996), which are hereby incorporated by reference in their entirety). […] Patch pipettes with a resistance of 2-4 MΩ were used; cells with a series resistance of >10 MΩ were discarded. […] Action potential parameters were analyzed by an individual blinded to culture conditions, using Patchmaster (HEKA) and Igor Pro software. […]

hESC-CM cultures [3] = assay: quantitative RT-PCR of cardiac subtype-specific genes; settings: treated hESC-CMs vs control, normalized to GAPDH
Protocol: Total RNA was prepared by lysing cell preparations with the Qiagen RNEasy kit, followed by DNase treatment. After confirming the quality of the RNA using an Agilent Bioanalyzer 2100, it was reverse-transcribed into cDNA using the Superscript III first-strand cDNA synthesis kit (Invitrogen). Tables 2 and 3 list the primers used for semi-quantitative and quantitative RT-PCR reactions, respectively. All primer pairs were designed to be intron-spanning Quantitative real-time PCR reactions were performed using the SYBR green dye system and an Applied Biosystems 7900HT instrument. Cycling conditions were 10 minutes at 95° C., and 40 cycles of 30 seconds at 95° C., 30 seconds at 55° C., and 30 seconds at 72° C. mRNA levels were normalized using GAPDH as an internal control, and adult human heart cDNA was always run in parallel as a positive control.
In the preceding experiments, manipulation of NRG-1β/ErbB signaling changed the relative abundance of the two cardiac subtypes, as determined by both AP phenotyping and activation of the nodal-specific cGATA6-EGFP genetic reporter. To confirm these findings with an independent, molecular approach, quantitative RT-PCR was used to compare the expression of 18 subtype-specific genes in control, AG1478, and NRG-1β ligand-treated hESC-CM cultures (see Table 4). […] In sum, activation of NRG-1β/ErbB signaling increased the expression of genes associated with working cardiomyocytes, while its blockade with AG1478 increased the expression of genes associated with the nodal subtype.

[4] = tested on: Akt and ERK kinases in hESC-CM cultures; assay: Western blot analysis of Akt and Erk phosphorylation; settings: hESC-CMs day 10 post-induction, 10 minutes, 10 or 100 ng/ml NRG-1β, with or without 25 μg/ml anti-NRG1β antibody
Protocol: For this, hESC-CMs (˜5×10^6 […] per well) were treated on day 10 post-induction with 0, 10, or 100 ng/ml NRG-1β (R&D Systems) in the presence or absence of 25 μg/ml anti-NRG1β neutralizing antibody (R&D Systems) for 10 minutes. After treatment, cells were rinsed twice with ice-cold PBS and lysed for 20 minutes on ice with 250 μl of extraction buffer (25 mM Tris-HCl (pH 7.4), 150 mM NaCl, 2 mM EDTA, 10 mM Na2SO4, and 1% Triton X-100 supplemented just prior to use with 50 mM NaF, 1 mM sodium orthovanadate, 1 mM phenylmethylsulfonyl fluoride, and a protease inhibitor cocktail (Sigma)). Lysates were collected with a cell scraper, placed in microcentrifuge tubes, vortexed for 3 minutes at 4° C., and then spun at 4° C. for 20 minutes at 12,000 g to discard cell debris. The resultant protein lysates were then denatured at 95° C. for 10 minutes and loaded (at 30 μg/lane) onto a denaturing 10% SDS/polyacrylamide gel, electrophoresed, and then transferred onto a PVDF membrane. The PVDF blot was blocked for 1 hour at room temperature in 1×TBST (150 mM NaCl, 10 mM Tris-HCl (pH 7.4), and 0.1% Tween) plus 5% nonfat milk, probed overnight with anti-phosphorylation Akt and anti-phosphorylation Erk1/2 antibodies (Cell Signaling), and then incubated with peroxidase-conjugated goat anti-mouse IgG antibody (Sigma). […]

| Molecule | percentage of EGFP+ putative nodal cells [1] [%] | proportion of cells exhibiting a nodal-like AP phenotype (hESC-CM cultures [2]; differentiating hESC-CM cultures, control 21%) [%] | expression of HCN4 relative to control cells (hESC-CM cultures [3]) [fold] | expression of Tbx-3 (TBX3) relative to control cells (hESC-CM cultures [3]) [fold] | phosphorylation (activation) of Akt and ERK kinases [4] | phosphorylation (activation) of Akt and ERK kinases ([4]; listed as NRG-1β agonist) | effect on fraction of nodal cells (AP phenotyping) (hESC-CM cultures [2]; exogenous NRG-1β 100 ng/ml, day 5 to 12 or continuously after day 5, versus control) | expression of NPPA (atrial natriuretic factor, ANF) relative to controls (hESC-CM cultures [3]) [fold] |
| --- | --- | --- | --- | --- | --- | --- | --- | --- |
| COc1cc2ncnc(Nc3cccc(Cl)c3)c2cc1OC [AG1478] | 25 | 52 | 2.0 | 2.6 | – | – | – | – |
| NRG1β ligand: NRG-1β (R&D Systems), exogenous neuregulin-1β agonist of ErbB receptors (protein) TSHLVKCAEKEKTFCVNGGECFMVKDLSNPSRYLCKCPNEFTGDRCQNYVMASFYKHLGIEFMEAEELYQK | – | – | – | – | phosphorylated | activation of both kinases | a trend toward the opposite effect (i.e., a reduction in the fraction of nodal cells) | 2.6 |

Source: patent US8815593B2, “Induction of human embryonic stem cell derived cardiac pacemaker or chamber-type cardiomyocytes by manipulation of neuregulin signaling” (University of Washington, priority 2008, dated 2014)
